No end group written: not given here. Cy5Q = cyanine dye quencher coupled to the N-terminus (from Cy5Q-NHS)
Tested on: AspN
Experiment: Endoproteinase AspN cleavage assay
Assay type: biochemical
Details: 2 μM, 500 μl, AspN 100 ng, overnight at ambient temperature, excitation 520 nm, emission 540-750 nm
Description: The fluorescence intensity of compound A (2 μM, 500 μl volume) in a quartz cuvette was recorded using a spectrofluorimeter. The sample was excited at 520 nm and emission over 540-750 nm recorded. AspN (100 ng, 50 μl volume) was added to the sample in the cuvette, which was stoppered, and kept dark at ambient temperature overnight. The fluorescence intensity was again recorded. […] Tween™ is a trademark of ICI Americas, Inc.

Cy5Q -Asp-Glu-Val-Asp-Arg-Ser-Gly-Ser-Gly-Ser-Cy3-Ala-Leu-Thr-OH (Cy5Q-DEVDRSGSGS; not fully specified (C-terminus)) [Compound A]
Cy3 fluorescence on AspN-catalysed hydrolysis: increase in Cy3 fluorescence
